Measurements: patent US11453697B1, “Cyclic di-nucleotide compounds as sting agonists” (Merck Sharp & Dohme Corp., priority 2015, dated 2022)

Assays:
[1] = target: full-length HAQ STING (Homo sapiens (Human), UniProt Q86WV6, G230A/H232R/R293Q/R71H); experiment: 3H-cGAMP filtration binding assay (HAQ STING); conditions: competition with tritiated cGAMP, HAQ STING membrane; read-out: EC50 (nM), 3H-cGAMP filtration binding assay for HAQ STING
How it was run: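 Competition binding of compounds against 8 nM [3H]cGAMP working stock on Hi-Five cell membranes overexpressing full-length HAQ STING; compound and membrane preincubated 60 min at RT before ligand addition. Bound radioactivity read by filtration and scintillation counting; percent activity normalized to controls, EC50 from 4-parameter fit.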

[2] = tested on: IFN-β secretion in THP1 cells; experiment: IFN-β secretion in THP1 cell culture (5 h); assay type: cell-based, human; conditions: IFN-β secretion in THP1 cell culture, 5 h; compound at 30 μM; percent activation relative to 2′3′-cGAMP
How it was run: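 THP1 cells incubated with compound for 5 h at 37 °C, 5% CO2, and secreted IFN-β in supernatant quantified by AlphaLISA. Percent effect normalised to 30 uM cGAMP positive control and 0.3% DMSO. EC50 from 4-parameter fit.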

full-length HAQ STING, sequence (Q86WV6 other isoform, or with tags, fused parts or gaps, stated change not applied): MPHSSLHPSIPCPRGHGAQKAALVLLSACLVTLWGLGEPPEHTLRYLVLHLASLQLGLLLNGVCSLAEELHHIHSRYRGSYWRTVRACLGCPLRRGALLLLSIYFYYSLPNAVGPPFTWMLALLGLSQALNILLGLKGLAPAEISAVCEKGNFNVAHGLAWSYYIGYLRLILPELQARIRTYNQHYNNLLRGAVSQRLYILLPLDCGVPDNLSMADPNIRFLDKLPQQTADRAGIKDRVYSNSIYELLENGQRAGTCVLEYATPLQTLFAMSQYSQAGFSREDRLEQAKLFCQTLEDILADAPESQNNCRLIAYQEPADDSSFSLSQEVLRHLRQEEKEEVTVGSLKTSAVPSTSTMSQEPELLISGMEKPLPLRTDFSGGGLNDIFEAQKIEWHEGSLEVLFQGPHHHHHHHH

**Q.** Which EC50 [1] does the source give for `Nc1ncnc2c1ncn2[C@@H]1O[C@@H]2COP(=O)(O)O[C@@H]3[C@H](O)[C@@H](COP(=O)(O)O[C@H]2[C@H]1O)O[C@H]3c1n[nH]c2c(=O)[nH]cnc12` [Example 74, 3-[(5R,7S,8R,12aR,14R,15R,15aS,16R)-14-(6-amino-9H-purin-9-yl)-2,10,15,16-tetrahydroxy-2,10-dioxidooctahydro-12H-5,8-methanofuro[3,2-l][1,3,6,9,11,2,10]pentaoxadiphosphacyclotetradecin-7-yl]-1,6-dihydro-7H-pyrazolo[4,3-d]pyrimidin-7-one] here?
**A.** Its EC50 is 5.8 nM.

**Q.** What about the “% Effect at 30 μM relative to 2′3′-cGAMP” value [2] of the same molecule?
**A.** The value was 57%.

**Q.** Which results are given for `Nc1nc2c(ncn2[C@@H]2O[C@@H]3COP(=O)(O)O[C@H]4[C@@H](O)[C@H](n5cnc6c(N)ncnc65)O[C@@H]4COP(=O)(O)O[C@@H]2[C@@H]3N)c(=O)[nH]1` [Example 75, 2-Amino-9-[(5S,7R,8R,12aR,14R,15R,15aS,16R)-16-amino-14-(6-amino-9H-purin-9-yl)-2,10,15-trihydroxy-2,10-dioxidooctahydro-12H-5,8-methanofuro[3,2-l][1,3,6,9,11,2,10]pentaoxadiphosphacyclotetradecin-7-yl]-1,9-dihydro-6H-purin-6-one]?
**A.** EC50 [1]: 2.6 nM; % Effect at 30 μM relative to 2′3′-cGAMP [2]: 96%

**Q.** How did the EC50 [1] turn out when `NC(=O)c1ncnc2c1ncn2[C@@H]1O[C@@H]2COP(=O)(O)O[C@@H]3[C@H](O)[C@@H](COP(=O)(O)O[C@H]2[C@H]1O)O[C@H]3n1cnc2c(=O)[nH]c(N)nc21` [Example 76, 9-[(5R,7R,8R,12aR,14R,15R,15aS,16R)-7-(2-amino-6-oxo-1,6-dihydro-9H-purin-9-yl)-2,10,15,16-tetrahydroxy-2,10-dioxidooctahydro-12H-5,8-methanofuro[3,2-l][1,3,6,9,11,2,10]pentaoxadiphosphacyclotetradecin-14-yl]-9H-purine-6-carboxamide] was run?
**A.** The EC50 was 75.4 nM.

**Q.** What about the “% Effect at 30 μM relative to 2′3′-cGAMP” value [2] of the same molecule?
**A.** The value was 39%.

**Q.** For `Nc1nc2c(ncn2[C@@H]2O[C@@H]3COP(=O)(S)O[C@H]4[C@H](F)[C@H](n5nnc6c(N)ncnc65)O[C@@H]4COP(=O)(S)O[C@@H]2C3)c(=O)[nH]1` (stereo partly drawn) [Example 138, 2-amino-9-[(5S,7R,8R,12aR,14R,15S,15aR)-14-(7-amino-3H-[1,2,3]triazolo[4,5-d]pyrimidin-3-yl)-15-fluoro-2,10-dioxido-2,10-disulfanyloctahydro-12H-5,8-methanofuro[3,2-l] [1,3,6,9,11,2,10]pentaoxadiphosphacyclotetra-decin-7-yl]-1,9-dihydro-6H-purin-6-one], which EC50 [1] is on record?
**A.** Its EC50 is 739 nM.

**Q.** What about the “% Effect at 30 μM relative to 2′3′-cGAMP” value [2] of the same molecule?
**A.** Its value is 51%.

**Q.** How did the EC50 [1] turn out when `Nc1nc2c(ncn2[C@@H]2O[C@@H]3CO[P@@](=O)(S)O[C@H]4[C@@H](O)[C@H](n5cnc6c(=O)[nH]cnc65)O[C@@H]4CO[P@@](=O)(S)O[C@@H]2C3)c(=O)[nH]1` [Example 290, 2-amino-9-[(2R,5S,7R,8R,10R,12aR,14R,15R,15aS)-15-hydroxy-2,10-dioxido-14-(6-oxo-1,6-dihydro-9H-purin-9-yl)-2,10-disulfanyloctahydro-12H-5,8-methanofuro[3,2-l][1,3,6,9,11,2,10]pentaoxadiphosphacyclotetradecin-7-yl]-1,9-dihydro-6H-purin-6-one] was run?
**A.** Its EC50 is 2.5 nM.

**Q.** And the “% Effect at 30 μM relative to 2′3′-cGAMP” value [2]?
**A.** Its value is 90%.

**Q.** Which EC50 [1] does the source give for `Nc1ncnc2c1ncn2[C@@H]1O[C@@H]2COP(=O)(O)O[C@H]3C[C@H](n4cnc5c(=O)[nH]cnc54)O[C@@H]3COP(=O)(O)O[C@@H]1[C@@H]2O` [Example 291, 9-[(5R,7R,8R,12aR,14R,15aS,16R)-7-(6-amino-9H-purin-9-yl)-2,10,16-trihydroxy-2,10-dioxidooctahydro-12H-5,8-methanofuro[3,2-l][1,3,6,9,11,2,10]pentaoxadiphosphacyclotetradecin-14-yl]-1,9-dihydro-6H-purin-6-one] here?
**A.** Its EC50 is 64.7 nM.

**Q.** What about the “% Effect at 30 μM relative to 2′3′-cGAMP” value [2] of the same molecule?
**A.** The value was 98%.
